The subject of test [1] is protein kinase activity of the resident proteins present in the MFGM. Put plainly: Auto-phosphorylation of MFGM proteins with γ 32P-ATP, detected by SDS-PAGE and autoradiography. In kind it is biochemical, bovine. Particulars: for effect on the phosphorylation pattern: valinomycin with or without KCl, ionophore A23187 + CaCl2. The protocol:
MFGM and skim milk membranes (SMM) were incubated with γ ^32 P-ATP in the presence of protein phosphatase inhibitors (vanadate, 8-glycerophosphate, phosphotyrosine, phosphoserine, phosphothreonine, p-nitrophenyl phosphate) and 5 mM MgCl, and/or 3 mM MnCl, led to phosphorylation of proteins, as detected by SDS-PAGE and autoradiography. In the bovine MFGM, […] main radiolabelled protein bands were detected and ranged from 13-200 kDa (13, 15, 21, 24, 32, 35, 39, 45, 51, 66, 75, 100, 130, 200). In the human MFGM, 8 bands were indentified and ranged between 20-150 kDa five main bands corresponding to 51, 65, 66, 100, and 130, and three weaker bands corresponding to 21, 24 and 27 kDa. Phosphorylation of bovine skim milk membrane (SMM) proteins was observed only after the addition of 0.1% Triton X-100 to membranes. In this case, the three-four main radioactive bands were detected in a zone between 32 and 35 kDa, and one band in the 75 kDa range.
The presence of phosphatase inhibitors in the kinase media was necessary to see maximal levels of protein phosphorylation. The phosphorylation reaction would not take place when Mg^2+ and Mn^2+ were substituted for Ca^2+. Genistein, an inhibitor of protein tyrosine kinase activity caused approximately 50% inhibition of phosphorylation.
It is believed that the observed phosphorylation was a result of Mg^2+ or Mn^2+ --dependent protein kinase activity of the resident proteins present in the MFGM.

The test system of test [2] is bovine mammary and human breast cancer cells. Particulars: including bovine mammary and human breast cancer cells; cited from earlier work.
Test [3] has as its system fatty acid binding protein (FABP/MDGI). Put plainly: FABP phosphorylation in MFGM of milk from cows treated with bST (15 kDa band intensity on electrophoresis gel, FIG. 1). It counts as in vivo, cow. Particulars: for phosphorylated 15 kDa protein (FABP) relative to non-bST treated control cow: FIG. 1. The protocol:
The test for determining whether an animal has been treated with bST is performed by: 1) isolating the milk fat globule membranes (MFGM); 2) phosphorylating the MFGM; 3) and detecting the levels of phosphorylation of FABP in MFGM.
Milk fat globule membranes (MFGM) are prepared from the cream of fresh bovine milk. Between 100-200 ml fresh bovine milk from cows administered bST are collected. The cream is obtained by centrifugation of milk at 3,000×g for 20 min. It is then suspended in two volumes of 10 mM phosphate buffer, pH 7.4, containing 0.9% NaCl (PBS), and homogenized in a Warring blender for 45 sec. The homogenate is centrifuged at 100,000×g for 90 min. The MFGM pellet is washed once by resuspension in an initial volume of PBS, followed by centrifugation at 100,000×gfor 90 min. No cells (somatic cells) are found in the MFGM, as determined by light microscopy. MFGM may be either used immediately or stored at -80' C. for future use.
FABP/MDGI is involved in the binding and transport of milk fatty acids.
FIG. 1 is a bar graph showing intensity of a band on an electrophoresis gel showing FABP phosphorylation at the 15 kDalton level. The non-bST treated cow was used as a control. A sample from a milk bulk tank containing milk from cows treated with bST has only about a quarter of the phosphorylated 15 kDa protein.

With `N#CC(C#N)=NNc1cccc(Cl)c1` [CCCP, carbonyl-cyanide-m-chlorophenyl hydrazone], the “effect on the phosphorylation pattern” value in test [1] is given as “did not significantly alter”. For `C(=NC1CCCCC1)=NC1CCCCC1` [DCCD, dicyclohexylcarbodimide], the “effect on the phosphorylation pattern” value in test [1] is reported as “did not significantly alter”. For the molecule `O=c1c(-c2ccc(O)cc2)coc2cc(O)cc(O)c12` [Genistein], the inhibition of phosphorylation result in test [1] (kinase media with phosphatase inhibitors) is recorded as “approximately 50%”. Turning to `CC1OC(OC2CC(O)C3(CO)C4C(O)CC5(C)C(C6=CC(=O)OC6)CCC5(O)C4CCC3(O)C2)C(O)C(O)C1O` (stereo not drawn) [Oubain], the “effect on the phosphorylation pattern” value in test [1] was “did not significantly alter”.

`C=C1[C@@H]2CC[C@H]3[C@]4(C)C[C@H](O[C@@H]5O[C@H](CO)[C@@H](OS(=O)(=O)O)[C@H](OS(=O)(=O)O)[C@H]5OC(=O)CC(C)C)C[C@@H](C(=O)O)[C@H]4CC[C@]3(C2)[C@H]1O` [atractyloside]: in test [1], the “effect on the phosphorylation pattern” value was “did not significantly alter”.

For `CNc1ccc2oc(C[C@H]3O[C@@]4(CC[C@H]3C)O[C@H]([C@H](C)C(=O)c3ccc[nH]3)[C@H](C)C[C@H]4C)nc2c1C(=O)O` [ionophore A23187], the “effect on the phosphorylation pattern” value in test [1] was “did not significantly alter”.

As for `CC(C)[C@@H]1NC(=O)[C@H](C)OC(=O)[C@@H](C(C)C)NC(=O)[C@@H](C(C)C)OC(=O)[C@H](C(C)C)NC(=O)[C@H](C)OC(=O)[C@@H](C(C)C)NC(=O)[C@@H](C(C)C)OC(=O)[C@H](C(C)C)NC(=O)[C@H](C)OC(=O)[C@@H](C(C)C)NC(=O)[C@@H](C(C)C)OC1=O` [valinomycin], in test [1], the “effect on the phosphorylation pattern” value is “did not significantly alter”.

B1: MDGI/FABP: mammary derived growth inhibitor / fatty acid binding protein, a 15 kDa protein of the milk fat globule membrane (protein, UniProt P10790 2-133, looked up)
Fatty acid-binding protein, …: VDAFVGTWKLVDSKNFDDYMKSLGVGFATRQVGNMTKPTTIIEVNGDTVIIKTQSTFKNTEISFKLGVEFDETTADDRKVKSIVTLDGGKLVHVQKWNGQETSLVREMVDGKLILTLTHGTAVCTRTYEKQA
For B1, the “growth of various cell types” value in test [2] was “inhibits the growth”.

B2: bST: recombinant bovine somatotropin, growth hormone approved for use in dairy cows (protein, UniProt P01246 27-217, looked up)
Somatotropin: AFPAMSLSGLFANAVLRAQHLHQLAADTFKEFERTYIPEGQRYSIQNTQVAFCFSETIPAPTGKNEAQQKSDLELLRISLLLIQSWLGPLQFLSRVFTNSLVFGTSDRVYEKLKDLEEGILALMRELEDGTPRAGQILKQTYDKFDTNMRSDDALLKNYGLLSCFRKDLHKTETYLRVMKCRRFGEASCAF
On to B2, for which the “levels of phosphorylated MDGI/FABP” value in test [3] (MFGM isolated from cows treated with bST vs non treated cows) is on record as “significantly reduced”. Moreover, the FABP autophosphorylation activity result in test [3] (cows treated with bST vs non treated cows) was “weaker”. Besides, the “phosphorylated 15 kDa protein (FABP) relative to non-bST treated control cow” value is “significant decrease” in test [3] (individual cows treated with bST) and “about a quarter” in test [3] (milk bulk tank sample containing milk from cows treated with bST).

Source of the values: US5635401A, “Method to detect hormone treatment in animals” (Cornell Research Foundation, Inc., priority 1995, dated 1997).
